Laboratory results from PMC6723587 (Toxins, 2019).
Read-outs that look alike come from different tables or passages of the source.

How the values were obtained:
[1] = in vivo
[2] = for the sum of DON, DON3G, 3-ADON and 15-ADON; EFSA; cited from earlier work
[3] = pigs, cited from earlier work
[4] = tested on: human cytosolic beta-glucosidases; conditions: in vitro incubation; cited from earlier work
[5] = pigs, oral single dose DON3G 56 µg/kg bw; cited from earlier work
[6] = in vivo; remark: listed apart in the source
[7] = cited from earlier work
[8] = oral single dose DON3G 116 µg/kg bw

With `CC1=C[C@H]2O[C@@H]3[C@H](O)C[C@](C)([C@@]2(CO)[C@H](O)C1=O)[C@]31CO1` [DON, deoxynivalenol] the “Fabs (fraction absorbed)” value ([1]; both, human, po) was 0.56, the “maximum percentage absorbed in the volunteers” value ([1]; both, human, po) was 98% and the “percentage absorbed, variation among the volunteers” value ([1]; both, human, po) was 30-98%. The “tolerable daily intake (group-TDI)” value [2] was 1 µg/kg body weight (bw)/day.

In the case of `CC(=O)OC[C@]12[C@H](O)C(=O)C(C)=C[C@H]1O[C@@H]1[C@H](O)C[C@@]2(C)[C@]12CO2` [15-ADON, 15-acetyldeoxynivalenol], the “tolerable daily intake (group-TDI)” value [2] is given as 1 µg/kg body weight (bw)/day.

In the case of `CC(=O)O[C@@H]1C[C@]2(C)[C@@]3(CO)[C@H](O)C(=O)C(C)=C[C@H]3O[C@H]1[C@@]21CO1` [3-ADON, 3-acetyldeoxynivalenol], the “tolerable daily intake (group-TDI)” value [2] is listed as 1 µg/kg body weight (bw)/day.

For `CC1=C[C@H]2O[C@@H]3[C@H](O[C@@H]4O[C@H](CO)[C@@H](O)[C@H](O)[C@H]4O)C[C@](C)([C@@]2(CO)[C@H](O)C1=O)[C@]31CO1` [DON3G, deoxynivalenol-3-glucoside], the “part of the dose excreted in urine during the first 8 h” value [3, 8] is listed as “approximately 2.5%”, the “part of the dose excreted in urine during the rest of the 24-hour collection period” value [3, 8] is listed as 1% and the “presence in urine after oral administration” value [3] is listed as “found in urine”. For the same molecule, the “hydrolysis by human cytosolic beta-glucosidases” value [4] was “did not hydrolyse”, the “detection in systemic plasma and vena porta plasma” value [5] was “could not be detected” and the detection in urine [1] was “Neither DON3G nor DOM-1 was detected”. For the same molecule, the “urine sample with the maximum excreted amount” value [6] was “first voided urine sample”, the “Fabs (fraction absorbed)” value ([6]; po) was 0.53 and the “Ke (excretion rate constant)” value ([6]; po) was 0.018. The “maximum percentage absorbed in the volunteers” value ([6]; po) was 84%, the “part absorbed as glucoside, % of the oral dose of DON3G” value ([6]; po) was less than 5% and the “percentage absorbed, variation among the volunteers” value ([6]; po) was 29-84%. The “total amount excreted unchanged in urine, % of the administered dose” value ([6]; po) was 1-5%, the “detectability in urine twelve hours after administration” value ([7]; single dose of DON3G) was “not detectable” and the “tolerable daily intake (group-TDI)” value [2] was 1 µg/kg body weight (bw)/day.

For `C=C1[C@@H]2O[C@@H]3C=C(C)C(=O)[C@@H](O)[C@]3(CO)[C@@]1(C)C[C@H]2O` [DOM-1, de-epoxy-deoxynivalenol], the detection in urine [1] is listed as “Neither DON3G nor DOM-1 was detected” and the “part of total DON3G recovered in urine” value ([7]; after administration of DON3G) is listed as “approximately 7%”.
